According to PMC7392887, “Structural signatures in EPR3 define a unique class of plant carbohydrate receptors” (Nature Communications, 2020):

What was measured:
[1] = target: T1, EPR3 (Lotus japonicus, UniProt D3KU53); experiment: microscale thermophoresis; format: binding; conditions: labelled EPR3 (Blue NHS, 100 nM); 50 mM K2PO4 pH 7.8, 500 mM NaCl, 0.05% Tween-20; 25 °C; n = 3
T1 construct: gene LYS3; ectodomain (M1, M2, LysM3, stem), residues 33-232; N-terminal gp67 secretion signal, C-terminal 6xHis tag; secreted from Sf9 insect cells (baculovirus); glycosylated or PNGase F-treated; monomer
T1 sequence (D3KU53 33-232): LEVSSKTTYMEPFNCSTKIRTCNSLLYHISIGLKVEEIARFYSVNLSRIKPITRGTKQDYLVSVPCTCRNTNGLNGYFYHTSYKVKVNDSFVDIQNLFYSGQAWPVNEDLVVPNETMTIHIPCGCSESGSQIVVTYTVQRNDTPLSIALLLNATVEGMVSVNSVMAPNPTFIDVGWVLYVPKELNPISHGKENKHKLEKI

[2] = target: T2, Lotus japonicus exopolysaccharide receptor 3 (EPR3) ectodomain (Lotus japonicus ecotype Gifu, N-linked oligosaccharides (glycosylated)); experiment: SEC; analytic Superdex 75 Increase 3.2/300 column; mobility shift of the complex; conditions: both partners purified
T2 construct: EPR3 (exopolysaccharide receptor 3), Lotus japonicus ecotype Gifu, ectodomain, residues 33-232; Codon-optimised for insect cells, vector pOET2; also called Lotus EPR3; glycosylated EPR3; source: Sf9 (baculovirus), secreted into the medium, purified (HisTrap excel, HisTrap HP, Superdex 75)
T2 chain: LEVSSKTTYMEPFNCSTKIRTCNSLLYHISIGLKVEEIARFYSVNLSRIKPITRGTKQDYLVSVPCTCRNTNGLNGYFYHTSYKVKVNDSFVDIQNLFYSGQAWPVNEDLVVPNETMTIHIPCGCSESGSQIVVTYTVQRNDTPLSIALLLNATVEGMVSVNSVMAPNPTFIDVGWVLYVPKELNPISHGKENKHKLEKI

Molecule	Kd [1] [µM]	binding result [2]
O=C(O)[C@H]1O[C@@H](O[C@H]2[C@H](O)[C@@H](O)[C@@H](O[C@H]3[C@H](O)[C@@H](O)[C@H](OC[C@H]4O[C@@H](OC[C@H]5O[C@@H](O[C@H]6[C@H](O)[C@@H](O)[C@H](O[C@H]7[C@H](O)[C@@H](O)[C@H](O[C@H]8[C@@H](O)[C@@H](CO)OC(O)[C@@H]8O)O[C@@H]7CO)O[C@@H]6CO)[C@H](O)[C@@H](O)[C@@H]5O)[C@H](O)[C@@H](O)[C@@H]4O)O[C@@H]3CO)O[C@@H]2C(=O)O)[C@H](O)[C@@H]1O (some centres unmarked) [deOAc-EPS]	31.3 ± 11.7	–
Nb186 (VHH, llama (Lama glama) nanobody selected by phage display against EPR3; Cloned into pET22b(+) for bacterial expression; also called nanobody Nb186; source: E. coli LOBSTR, purified (Ni Sepharose 6 FF, Superdex 75)) VHH: QVQLVESGGGLVQPGGSLRLSCAASGSIFSIDYMGWYRQAPGKERELVAIKTSGGTTHYADSVKGRFTISRDNAKNTVYLQMNSLKPDDTAVYYCNARVYFGDRDYWGQGTQVTVSS	–	binds
